# US12723063B2, “GIPR-agonist compounds” (Eli Lilly and Company, priority 2019, dated 2026)
# *1 amine or outer side, *2 acyl side, *3 side chain or, on linkers, in order; H or OH if unused. Where a SMILES comes first, the peptide text is derived from it. Side-chain parts run from the residue outwards. [ ]: non-standard residue; d: D form. The star is where a group is joined. C20 diacid = O=C(O)CCCCCCCCCCCCCCCCCCC(=O)*; C18 diacid = O=C(O)CCCCCCCCCCCCCCCCC(=O)*; αMePhe(2-F) = C[C@](N)(Cc1ccccc1F)C(=O)O; γGlu = O=C(O)[C@H](CCC(=O)[*:2])N[*:1]; αMeL = CC(C)C[C@](C)(N)C(=O)O; AEEA = NCCOCCOCC(=O)O; Aib = CC(C)(N)C(=O)O
# Columns and labels:
# Assay in all cases: cAMP functional assay (HTRF) in HEK293 cells in presence of 0.1% casein
# Format in all cases: cell-based
# [1] = biological target: T1, human GLP-1 receptor (GLP-1R) (Homo sapiens, UniProt P43220); settings: HEK293 cells expressing human GLP-1R, geometric mean, read-out: hGLP1R cAMP Rel EC50 nM (SEM, n)
# T1 construct: expressed in transfected cells; host or cells: HEK293
# Description: (§1) Each receptor over-expressing cell line (20 μl) is treated with the test peptide in DMEM (Gibco Cat #31053) supplemented with 0.1% Casein (Sigma Cat #C4765), 250 μM IBMX, 1× GlutaMAX™ (Gibco Cat #35050), and 20 mM HEPES (HyClone Cat #SH30237.01) in a 20 μl assay volume. After incubating for 60 minutes at room temperature, the resulting increase in intracellular CAMP is quantitatively determined using the CisBio CAMP Dynamic 2 HTRF Assay Kit (62AM4PEJ). The Lysis buffer containing cAMP-d2 conjugate (20 μl) and the antibody anti-cAMP-Eu3+-Cryptate (20 μl) are then added to determine the cAMP level. After incubating 60 minutes at room temperature, HTRF signal is detected with an Envision 2104 plate reader (PerkinElmer). Fluorescent emission at 620 nm and at 665 nm is measured and the ratio between 620 nm and at 665 nm is calculated and then are converted to nM cAMP per well using a cAMP standard curve. Dose response curves of compounds are plotted as the percentage of stimulation normalized to minimum (buffer only) and maximum (maximum concentration of each control ligand) values and analyzed using a four parameter non-linear regression fit with a variable slope (Genedata Screener 13). EC50 is the concentration of compound causing half-maximal simulation in a dose response curve. A relative EC50 value is derived by non-linear regression analysis using the percent maximal response vs, the concentration of peptide added, fitted to a four-parameter logistic equation.
# (§2) Intracellular cAMP levels are determined by extrapolation using a standard curve. Dose response curves of compounds are plotted as the percentage of stimulation normalized to minimum (buffer only) and maximum (maximum concentration of each control ligand) values and analyzed using a four-parameter non-linear regression fit with a variable slope (Genedata Screener 13). EC50 is the concentration of compound causing half-maximal simulation in a dose response curve. Each relative EC50 value for the geometric mean calculation is determined from a curve fitting.
# (§3) Concentration response curves of compounds are plotted as the percentage of stimulation normalized to minimum (buffer only) and maximum (maximum concentration of each control ligand) values and analyzed using a four-parameter non-linear regression fit with a variable slope (Genedata Screener 13). EC50 is the concentration of compound causing half-maximal simulation in a dose response curve. […] The standard error of the mean is reported:
# (§4) [formula] • The log transform accounts for the EC50 values falling on a multiplicative, rather than an arithmetic scale.
# (§5) For illustration, as shown by Example 1, the peptide is tested in 8 runs of the hGIPR CAMP assay. […] Accordingly, each Example will use the geometric mean of those values to normalize the Example assay runs.
# [2] = biological target: T2, human glucose-dependent insulinotropic peptide receptor (GIPR) (Homo sapiens, UniProt P48546); settings: HEK293 cells expressing human GIPR, geometric mean, read-out: hGIPR cAMP Rel EC50 nM (SEM, n)
# T2 construct: expressed in transfected cells; host or cells: HEK293
# T2 sequence (P48546 22-466): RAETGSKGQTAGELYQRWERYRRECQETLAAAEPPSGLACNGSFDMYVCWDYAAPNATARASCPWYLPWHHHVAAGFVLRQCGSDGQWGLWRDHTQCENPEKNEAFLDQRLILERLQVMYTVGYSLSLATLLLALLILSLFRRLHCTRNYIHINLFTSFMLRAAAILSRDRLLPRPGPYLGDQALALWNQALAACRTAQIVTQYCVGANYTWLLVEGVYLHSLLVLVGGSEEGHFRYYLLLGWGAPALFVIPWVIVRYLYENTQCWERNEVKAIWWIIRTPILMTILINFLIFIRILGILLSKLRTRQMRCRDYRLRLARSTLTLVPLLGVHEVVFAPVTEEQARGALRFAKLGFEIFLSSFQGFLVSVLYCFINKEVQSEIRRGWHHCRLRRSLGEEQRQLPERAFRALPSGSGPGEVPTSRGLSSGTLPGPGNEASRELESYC
# Description: as §1, §2, §3, §4, §5
# [3] = biological target: T3, human glucagon receptor (GcgR) (Homo sapiens, UniProt P47871); settings: HEK293 cells expressing human GcgR, geometric mean, read-out: hGcgR cAMP Rel EC50 nM (SEM, n)
# T3 construct: expressed in transfected cells; host or cells: HEK293
# Description: as §1, §2, §3, §4, §5
# T3 sequence (P47871 26-477): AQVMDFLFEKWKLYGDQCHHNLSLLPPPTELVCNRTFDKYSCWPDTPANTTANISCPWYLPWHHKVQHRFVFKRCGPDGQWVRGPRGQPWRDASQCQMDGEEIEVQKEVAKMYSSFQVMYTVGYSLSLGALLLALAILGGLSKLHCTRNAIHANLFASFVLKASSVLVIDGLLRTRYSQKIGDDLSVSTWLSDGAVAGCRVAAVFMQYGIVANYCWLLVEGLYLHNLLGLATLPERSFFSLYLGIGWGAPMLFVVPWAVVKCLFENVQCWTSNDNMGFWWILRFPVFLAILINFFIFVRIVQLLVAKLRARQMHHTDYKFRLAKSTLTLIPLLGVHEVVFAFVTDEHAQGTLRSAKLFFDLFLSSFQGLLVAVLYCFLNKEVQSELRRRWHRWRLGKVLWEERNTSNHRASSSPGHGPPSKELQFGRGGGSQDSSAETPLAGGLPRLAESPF
# T1 sequence (P43220 24-463): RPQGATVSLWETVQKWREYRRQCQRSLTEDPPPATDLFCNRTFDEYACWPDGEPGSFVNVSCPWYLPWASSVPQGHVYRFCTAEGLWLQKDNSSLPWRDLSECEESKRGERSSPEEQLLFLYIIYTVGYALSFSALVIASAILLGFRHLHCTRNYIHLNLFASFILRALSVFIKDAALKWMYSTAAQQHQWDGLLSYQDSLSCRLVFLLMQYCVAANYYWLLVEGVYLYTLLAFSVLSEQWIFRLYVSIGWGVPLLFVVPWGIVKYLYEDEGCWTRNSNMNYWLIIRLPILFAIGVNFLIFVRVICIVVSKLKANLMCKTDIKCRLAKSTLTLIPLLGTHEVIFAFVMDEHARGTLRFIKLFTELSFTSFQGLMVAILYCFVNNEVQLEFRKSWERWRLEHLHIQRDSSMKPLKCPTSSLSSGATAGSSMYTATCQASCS
Structure (SMILES),EC50 [1] [nM],EC50 [2] [nM],EC50 [3] [nM]
CC[C@H](C)[C@H](NC(=O)[C@H](CO)NC(=O)[C@H](Cc1ccc(O)cc1)NC(=O)[C@H](CC(=O)O)NC(=O)[C@H](CO)NC(=O)[C@@H](NC(=O)[C@](C)(Cc1ccccc1F)NC(=O)[C@@H](NC(=O)CNC(=O)[C@H](CCC(=O)O)NC(=O)[C@H](C)NC(=O)[C@@H](Cc1ccc(O)cc1)NC(C)=O)[C@@H](C)O)[C@@H](C)CC)C(=O)N[C@@H](C)C(=O)N[C@@H](CC(C)C)C(=O)N[C@@H](CC(=O)O)C(=O)N[C@@H](CCCCN)C(=O)N[C@@H](CCCCNC(=O)COCCOCCNC(=O)COCCOCCNC(=O)CC[C@H](NC(=O)CCCCCCCCCCCCCCCCC(=O)O)C(=O)O)C(=O)N[C@@H](Cc1c[nH]cn1)C(=O)N[C@@H](CCC(N)=O)C(=O)NC(C)(C)C(=O)N[C@@H](CCC(=O)O)C(=O)N[C@@H](Cc1ccccc1)C(=O)N[C@H](C(=O)N[C@@H](CC(N)=O)C(=O)N[C@@H](Cc1ccc(O)cc1)C(=O)N[C@@H](CC(C)C)C(=O)N[C@@H](CC(C)C)C(=O)N[C@@H](C)C(=O)NCC(=O)NCC(=O)N1CCC[C@H]1C(=O)N[C@@H](CO)C(=O)N[C@@H](CO)C(=O)NCC(=O)N[C@@H](C)C(=O)N1CCC[C@H]1C(=O)N1CCC[C@H]1C(=O)N1CCC[C@H]1C(=O)N[C@@H](CO)C(N)=O)C(C)C [Example 30] (Ac-[dY]AEGT[αMePhe(2-F)]ISDYSIALDKK([AEEA-AEEA-γGlu-C18 diacid])HQ[Aib]EFVNYLLAGGPSSGAPPPS-NH2),> 5000,0.00572,> 5000
CC[C@H](C)[C@H](NC(=O)[C@H](CO)NC(=O)[C@H](Cc1ccc(O)cc1)NC(=O)[C@H](CC(=O)O)NC(=O)[C@H](CO)NC(=O)[C@@H](NC(=O)[C@H](Cc1ccccc1)NC(=O)[C@@H](NC(=O)CNC(=O)[C@H](CCC(=O)O)NC(=O)[C@@H](C)NC(=O)[C@@H](N)Cc1ccc(O)cc1)[C@@H](C)O)[C@@H](C)CC)C(=O)N[C@@H](CC(C)C)C(=O)N[C@@H](CC(C)C)C(=O)N[C@@H](CC(=O)O)C(=O)N[C@@H](CCCCN)C(=O)N[C@@H](CCCCNC(=O)COCCOCCNC(=O)COCCOCCNC(=O)CC[C@H](NC(=O)CCCCCCCCCCCCCCCCC(=O)O)C(=O)O)C(=O)N[C@@H](C)C(=O)N[C@@H](CCC(N)=O)C(=O)NC(C)(C)C(=O)N[C@@H](CCC(=O)O)C(=O)N[C@@H](Cc1ccccc1)C(=O)N[C@H](C(=O)N[C@@H](CCC(N)=O)C(=O)N[C@@H](Cc1c[nH]c2ccccc12)C(=O)N[C@@H](CC(C)C)C(=O)N[C@@H](CC(C)C)C(=O)N[C@@H](C)C(=O)NCC(=O)NCC(=O)N1CCC[C@H]1C(=O)N[C@@H](CO)C(=O)N[C@@H](CO)C(=O)NCC(=O)N[C@@H](C)C(=O)N1CCC[C@H]1C(=O)N1CCC[C@H]1C(=O)N1CCC[C@H]1C(=O)N[C@@H](CO)C(N)=O)C(C)C [Example 27] (H-Y[dA]EGTFISDYSILLDKK([AEEA-AEEA-γGlu-C18 diacid])AQ[Aib]EFVQWLLAGGPSSGAPPPS-NH2),> 5000,0.0132,> 5000
CC[C@H](C)[C@H](NC(=O)[C@H](CO)NC(=O)[C@H](Cc1ccc(O)cc1)NC(=O)[C@H](CC(=O)O)NC(=O)[C@H](CO)NC(=O)[C@@H](NC(=O)[C@H](Cc1ccccc1)NC(=O)[C@@H](NC(=O)CNC(=O)[C@H](CCC(=O)O)NC(=O)C(C)(C)NC(=O)[C@@H](N)Cc1ccc(O)cc1)[C@@H](C)O)[C@@H](C)CC)C(=O)N[C@@H](CC(C)C)C(=O)N[C@@H](CC(C)C)C(=O)N[C@@H](CC(=O)O)C(=O)N[C@@H](CCCCN)C(=O)N[C@@H](CCCCNC(=O)COCCOCCNC(=O)COCCOCCNC(=O)CC[C@H](NC(=O)CCCCCCCCCCCCCCCCC(=O)O)C(=O)O)C(=O)N[C@@H](Cc1c[nH]cn1)C(=O)N[C@@H](CCC(N)=O)C(=O)NC(C)(C)C(=O)N[C@@H](CC(=O)O)C(=O)N[C@@H](Cc1ccccc1)C(=O)N[C@H](C(=O)N[C@@H](CCC(=O)O)C(=O)N[C@@H](Cc1ccncc1)C(=O)N[C@@H](CC(C)C)C(=O)N[C@@H](CC(C)C)C(=O)N[C@@H](C)C(=O)NCC(=O)NCC(=O)N1CCC[C@H]1C(=O)N[C@@H](CO)C(=O)N[C@@H](CO)C(=O)NCC(=O)N[C@@H](C)C(=O)N1CCC[C@H]1C(=O)N1CCC[C@H]1C(=O)N1CCC[C@H]1C(=O)N[C@@H](CO)C(N)=O)C(C)C [Example 22],> 5000,0.0345,1250
CC[C@H](C)[C@H](NC(=O)[C@H](CC(C)C)NC(=O)[C@@H](NC(=O)CNC(=O)[C@H](CCC(=O)O)NC(=O)C(C)(C)NC(=O)[C@@H](N)Cc1ccc(O)cc1)[C@@H](C)O)C(=O)N[C@@H](CO)C(=O)N[C@@H](CC(=O)O)C(=O)N[C@@H](Cc1ccc(O)cc1)C(=O)N[C@@H](CO)C(=O)N[C@H](C(=O)N[C@@](C)(CC(C)C)C(=O)N[C@@H](CC(C)C)C(=O)N[C@@H](CC(=O)O)C(=O)N[C@@H](CCCCN)C(=O)N[C@@H](CCCCNC(=O)COCCOCCNC(=O)COCCOCCNC(=O)CC[C@H](NC(=O)CCCCCCCCCCCCCCCCCCC(=O)O)C(=O)O)C(=O)N[C@@H](Cc1c[nH]cn1)C(=O)N[C@@H](CCC(N)=O)C(=O)NC(C)(C)C(=O)N[C@@H](CCC(=O)O)C(=O)N[C@@H](Cc1ccccc1)C(=O)N[C@H](C(=O)N[C@@H](CCC(=O)O)C(=O)N[C@@H](Cc1ccc(O)cc1)C(=O)N[C@@H](CC(C)C)C(=O)N[C@@H](CC(C)C)C(=O)N[C@@H](CCC(=O)O)C(=O)NCC(=O)NCC(=O)N1CCC[C@H]1C(=O)N[C@@H](CO)C(=O)N[C@@H](CO)C(=O)NCC(=O)N[C@@H](C)C(=O)N1CCC[C@H]1C(=O)N1CCC[C@H]1C(=O)N1CCC[C@H]1C(=O)N[C@@H](CO)C(N)=O)C(C)C)[C@@H](C)CC [Example 73] (H-Y[Aib]EGTLISDYSI[αMeL]LDKK([AEEA-AEEA-γGlu-C20 diacid])HQ[Aib]EFVEYLLEGGPSSGAPPPS-NH2),> 5000,0.0151,> 5000
CC[C@H](C)[C@H](NC(=O)[C@H](CCCCN)NC(=O)[C@H](CC(=O)O)NC(=O)[C@H](CC(C)C)NC(=O)[C@](C)(CC(C)C)NC(=O)[C@@H](NC(=O)[C@H](CO)NC(=O)[C@H](Cc1ccc(O)cc1)NC(=O)[C@H](CC(=O)O)NC(=O)[C@H](CO)NC(=O)[C@@H](NC(=O)[C@H](Cc1ccccc1)NC(=O)[C@@H](NC(=O)CNC(=O)[C@H](CCC(=O)O)NC(=O)C(C)(C)NC(=O)[C@@H](N)Cc1ccc(O)cc1)[C@@H](C)O)[C@@H](C)CC)[C@@H](C)CC)C(=O)N[C@@H](CCCNC(=N)N)C(=O)N[C@@H](CCC(N)=O)C(=O)NC(C)(C)C(=O)N[C@@H](CC(=O)O)C(=O)N[C@@H](Cc1ccccc1)C(=O)N[C@H](C(=O)N[C@@H](CCC(=O)O)C(=O)N[C@@H](Cc1ccc(O)cc1)C(=O)N[C@@H](CCCCNC(=O)COCCOCCNC(=O)COCCOCCNC(=O)CC[C@H](NC(=O)CCCCCCCCCCCCCCCCCCC(=O)O)C(=O)O)C(=O)N[C@@H](CC(C)C)C(=O)N[C@@H](CCC(=O)O)C(=O)NCC(=O)NCC(=O)N1CCC[C@H]1C(=O)N[C@@H](CO)C(=O)N[C@@H](CO)C(=O)NCC(=O)N[C@@H](C)C(=O)N1CCC[C@H]1C(=O)N1CCC[C@H]1C(=O)N1CCC[C@H]1C(=O)N[C@@H](CO)C(N)=O)C(C)C [Example 115] (H-Y[Aib]EGTFISDYSI[αMeL]LDKIRQ[Aib]DFVEYK([AEEA-AEEA-γGlu-C20 diacid])LEGGPSSGAPPPS-NH2),> 5000,0.0372,> 5000
